According to patent US8318724B2, “Small molecule inhibitors of MRP1 and other multidrug transporters” (The Cleveland Clinic Foundation, priority 2004, dated 2012):

Tests used:
MDR1 = MDR1 (Homo sapiens, UniProt P08183)
Procedure: (§1) Fold of sensitization is calculated as a ratio of LD50 in the presence and in the absence of the inhibitor compound (see FIG. 6).
(§2) Fold of sensitization again is calculated as the ratio of LD50 in the presence and in the absence of the inhibitor compound (see FIG. 6).

MCF7/VP cells = experiment: Sensitization of MRP1-expressing MCF7/VP cells to chemotherapeutic drugs (methylene blue assay); assay type: cell-based; conditions: for folds of sensitization of MCF7/VP cells to cisplatin: cisplatin is not an MRP1 substrate; for folds of sensitization of MCF7/VP cells to doxorubicin / folds of sensitization of MCF7/VP cells to etoposide / folds of sensitization of MCF7/VP cells to vincristine: ratio of LD50 in the presence and in the absence of the compound
Procedure: Cells in 96-well plates (5×10^3 per well) were incubated with different concentrations of vincristine in the presence of 5 μM of the candidate compounds for 3 days. Cell numbers then were estimated using methylene blue assay. […] Verapamil (10 μM) was used as control.
FIG. 6 illustrates the effect of the identified inhibitor compounds on cell sensitivity to doxorubicin and vincristine. Cells (with or without MRP1 expression) were incubated 24 hours with the indicated concentrations of vincristine or doxorubicin followed by incubation for additional 48 hours in drugfree media. Cell numbers were quantified by standard methylene blue assay.
as §1
FIG. 8 illustrates the effects of the identified inhibitor compounds on sensitivity of MRP1-positive and MRP1-negative cells to vincristine. Fold of sensitization again is calculated as the ratio of LD50 in the presence and in the absence of the inhibitor compound (see FIG. 6).
FIG. 9 illustrates the effects of the identified inhibitor compounds on sensitivity of MRP1-positive and MRP1-negative cells to etoposide. Fold of sensitization again is calculated as the ratio of LD50 in the presence and in the absence of the inhibitor compound (see FIG. 6).
FIG. 10 illustrates the effects of the identified inhibitor compounds on sensitivity of MRP1-positive and MRP1-negative cells to taxol and cisplatin. Fold of sensitization again is calculated as the ratio of LD50 in the presence and in the absence of the inhibitor compound (see FIG. 6).

MDR3 = experiment: Sensitization to doxorubicin of cells expressing multidrug transporter MDR3; assay type: cell-based; conditions: ratio of LD50
Procedure: as §1, §2

MRP1 [1] = biological target: T1, MRP1 (Homo sapiens, UniProt P33527); experiment: Sensitization to doxorubicin of cells expressing multidrug transporter MRP1; assay type: cell-based; conditions: ratio of LD50
T1 construct: MCF7/VP breast cancer cells (24), which have amplified and overexpressed MRP1, but negligible Pgp expression; endogenous in cells; host or cells: MCF7/VP (MCF7/VP clone 14) breast cancer cells
T1 sequence (P33527 whole entry): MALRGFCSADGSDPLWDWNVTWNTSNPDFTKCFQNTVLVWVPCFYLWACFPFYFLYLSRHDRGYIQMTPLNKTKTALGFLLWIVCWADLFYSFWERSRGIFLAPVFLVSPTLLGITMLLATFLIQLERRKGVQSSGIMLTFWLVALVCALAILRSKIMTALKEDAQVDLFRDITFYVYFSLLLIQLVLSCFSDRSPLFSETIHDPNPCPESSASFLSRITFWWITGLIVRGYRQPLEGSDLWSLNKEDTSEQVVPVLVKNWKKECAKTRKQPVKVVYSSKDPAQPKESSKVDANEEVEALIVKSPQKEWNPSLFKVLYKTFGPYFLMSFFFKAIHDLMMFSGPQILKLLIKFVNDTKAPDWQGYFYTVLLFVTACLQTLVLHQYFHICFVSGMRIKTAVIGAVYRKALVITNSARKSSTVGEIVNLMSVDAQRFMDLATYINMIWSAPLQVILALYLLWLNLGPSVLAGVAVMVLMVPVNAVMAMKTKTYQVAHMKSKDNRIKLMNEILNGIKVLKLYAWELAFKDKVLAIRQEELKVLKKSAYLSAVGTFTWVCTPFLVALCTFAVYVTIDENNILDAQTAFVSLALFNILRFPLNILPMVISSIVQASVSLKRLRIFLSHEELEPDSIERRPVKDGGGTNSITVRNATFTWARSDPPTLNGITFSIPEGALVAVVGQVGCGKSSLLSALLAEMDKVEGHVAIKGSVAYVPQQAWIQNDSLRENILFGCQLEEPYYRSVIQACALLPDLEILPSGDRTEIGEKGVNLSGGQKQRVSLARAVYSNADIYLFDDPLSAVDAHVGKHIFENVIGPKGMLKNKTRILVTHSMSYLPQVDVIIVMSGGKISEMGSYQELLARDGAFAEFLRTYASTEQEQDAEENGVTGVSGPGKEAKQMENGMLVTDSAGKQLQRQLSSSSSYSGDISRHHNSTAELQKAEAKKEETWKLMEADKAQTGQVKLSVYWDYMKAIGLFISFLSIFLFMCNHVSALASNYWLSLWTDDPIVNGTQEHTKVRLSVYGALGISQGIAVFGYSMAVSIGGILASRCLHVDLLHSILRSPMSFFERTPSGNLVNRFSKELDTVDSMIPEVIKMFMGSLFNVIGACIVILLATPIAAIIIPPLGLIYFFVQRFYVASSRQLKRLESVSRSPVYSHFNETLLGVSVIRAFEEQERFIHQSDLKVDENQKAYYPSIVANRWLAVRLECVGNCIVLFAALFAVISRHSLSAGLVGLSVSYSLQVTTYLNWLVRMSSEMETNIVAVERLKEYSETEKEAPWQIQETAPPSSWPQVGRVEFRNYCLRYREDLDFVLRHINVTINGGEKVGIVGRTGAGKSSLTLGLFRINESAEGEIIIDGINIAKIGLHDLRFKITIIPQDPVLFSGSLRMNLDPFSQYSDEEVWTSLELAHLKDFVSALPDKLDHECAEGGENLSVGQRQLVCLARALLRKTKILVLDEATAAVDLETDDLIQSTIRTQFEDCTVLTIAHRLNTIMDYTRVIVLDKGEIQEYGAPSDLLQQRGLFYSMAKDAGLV
Procedure: as §1, §2

MRP2 = MRP2 (Homo sapiens, UniProt Q92887); experiment: Sensitization to doxorubicin of cells expressing multidrug transporter MRP2; assay type: cell-based; conditions: ratio of LD50
Chain of MRP2 (Q92887 whole entry, species assumed): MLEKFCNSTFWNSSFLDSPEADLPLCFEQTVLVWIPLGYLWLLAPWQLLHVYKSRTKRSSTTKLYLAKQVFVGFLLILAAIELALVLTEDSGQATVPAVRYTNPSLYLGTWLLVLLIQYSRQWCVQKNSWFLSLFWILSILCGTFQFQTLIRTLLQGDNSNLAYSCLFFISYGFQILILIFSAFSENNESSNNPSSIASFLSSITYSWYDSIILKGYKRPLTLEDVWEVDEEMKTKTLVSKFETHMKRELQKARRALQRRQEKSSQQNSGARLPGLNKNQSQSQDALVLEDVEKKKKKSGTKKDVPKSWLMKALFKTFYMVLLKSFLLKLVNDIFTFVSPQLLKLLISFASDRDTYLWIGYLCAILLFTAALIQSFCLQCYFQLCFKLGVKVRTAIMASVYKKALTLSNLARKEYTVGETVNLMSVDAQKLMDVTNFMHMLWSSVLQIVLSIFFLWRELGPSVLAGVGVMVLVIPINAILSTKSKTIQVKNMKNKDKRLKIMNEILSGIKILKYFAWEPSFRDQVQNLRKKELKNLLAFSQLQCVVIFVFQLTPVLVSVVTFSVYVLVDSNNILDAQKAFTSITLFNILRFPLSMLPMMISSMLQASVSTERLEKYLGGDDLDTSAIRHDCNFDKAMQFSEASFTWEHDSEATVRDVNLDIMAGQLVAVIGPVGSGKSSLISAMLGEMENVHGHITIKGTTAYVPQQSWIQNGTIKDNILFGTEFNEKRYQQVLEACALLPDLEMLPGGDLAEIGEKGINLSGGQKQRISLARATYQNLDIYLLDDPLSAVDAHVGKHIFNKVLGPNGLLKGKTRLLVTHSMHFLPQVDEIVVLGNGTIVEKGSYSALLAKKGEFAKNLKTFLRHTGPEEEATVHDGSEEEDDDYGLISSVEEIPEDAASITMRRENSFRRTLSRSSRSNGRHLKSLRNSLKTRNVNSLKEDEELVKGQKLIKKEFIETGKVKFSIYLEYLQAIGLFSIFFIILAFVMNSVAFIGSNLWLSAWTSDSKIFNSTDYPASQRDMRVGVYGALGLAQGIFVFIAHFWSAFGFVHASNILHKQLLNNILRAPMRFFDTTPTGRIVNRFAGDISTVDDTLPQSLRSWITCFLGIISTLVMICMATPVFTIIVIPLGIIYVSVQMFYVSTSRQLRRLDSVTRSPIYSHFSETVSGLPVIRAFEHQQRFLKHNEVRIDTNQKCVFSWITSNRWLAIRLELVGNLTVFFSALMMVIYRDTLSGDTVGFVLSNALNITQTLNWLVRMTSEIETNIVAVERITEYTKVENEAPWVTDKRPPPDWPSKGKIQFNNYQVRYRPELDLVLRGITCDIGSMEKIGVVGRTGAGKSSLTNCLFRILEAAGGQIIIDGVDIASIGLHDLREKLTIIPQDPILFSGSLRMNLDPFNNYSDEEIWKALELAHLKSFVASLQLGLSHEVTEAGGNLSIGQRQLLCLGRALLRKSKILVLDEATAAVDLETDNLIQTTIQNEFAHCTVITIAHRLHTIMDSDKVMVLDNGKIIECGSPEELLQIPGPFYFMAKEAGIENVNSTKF
Procedure: as §1, §2

NB cells = experiment: Direct toxicity toward NB cell lines (FIG. 18); assay type: cell-based; conditions: different lots of compound
[2] = In vivo toxicity, mouse weight after single i.p. injection (FIG. 19); conditions: up to 100 mg/kg
From the text: In particular, one parameter for testing toxicity is a weight loss of greater the […] of the body weight of a test mouse.

MRP1 [3] = biological target: T1, MRP1; experiment: Daunorubicin retention / efflux assay (FIG. 12); assay type: cell-based; conditions: daunorubicin 2 hours with compound, then 1 hour drug-free medium; retained daunorubicin
Procedure: FIG. 12 classifies the identified inhibitor compounds according to their strength as inhibitors of […] by MRP1. Cells were treated with daunorubicin in the presence of a test compound or a control for 2 hours, followed by incubation in fresh drug-free medium for 1 hour. Retained daunorubicin levels were measured to determine the effect of the inhibitor compounds on efflux activities.

MRP1 [4] = biological target: T1, MRP1; experiment: Dose dependence of drug sensitization effect, 4H10 vs MK571 (FIG. 14); assay type: cell-based; conditions: three different lots of 4H10
NB = experiment: In vivo efficacy in mouse model of NB in combination with chemotherapeutic agents (FIG. 20)
From the text: The test was a clinically relevant mouse model of NB that closely reflects the human disease (n=10, unless otherwise noted).

GL15 and 8 MG cell lines = conditions: both glioma cell lines; cited from earlier work

Chain of MDR1 (P08183 whole entry): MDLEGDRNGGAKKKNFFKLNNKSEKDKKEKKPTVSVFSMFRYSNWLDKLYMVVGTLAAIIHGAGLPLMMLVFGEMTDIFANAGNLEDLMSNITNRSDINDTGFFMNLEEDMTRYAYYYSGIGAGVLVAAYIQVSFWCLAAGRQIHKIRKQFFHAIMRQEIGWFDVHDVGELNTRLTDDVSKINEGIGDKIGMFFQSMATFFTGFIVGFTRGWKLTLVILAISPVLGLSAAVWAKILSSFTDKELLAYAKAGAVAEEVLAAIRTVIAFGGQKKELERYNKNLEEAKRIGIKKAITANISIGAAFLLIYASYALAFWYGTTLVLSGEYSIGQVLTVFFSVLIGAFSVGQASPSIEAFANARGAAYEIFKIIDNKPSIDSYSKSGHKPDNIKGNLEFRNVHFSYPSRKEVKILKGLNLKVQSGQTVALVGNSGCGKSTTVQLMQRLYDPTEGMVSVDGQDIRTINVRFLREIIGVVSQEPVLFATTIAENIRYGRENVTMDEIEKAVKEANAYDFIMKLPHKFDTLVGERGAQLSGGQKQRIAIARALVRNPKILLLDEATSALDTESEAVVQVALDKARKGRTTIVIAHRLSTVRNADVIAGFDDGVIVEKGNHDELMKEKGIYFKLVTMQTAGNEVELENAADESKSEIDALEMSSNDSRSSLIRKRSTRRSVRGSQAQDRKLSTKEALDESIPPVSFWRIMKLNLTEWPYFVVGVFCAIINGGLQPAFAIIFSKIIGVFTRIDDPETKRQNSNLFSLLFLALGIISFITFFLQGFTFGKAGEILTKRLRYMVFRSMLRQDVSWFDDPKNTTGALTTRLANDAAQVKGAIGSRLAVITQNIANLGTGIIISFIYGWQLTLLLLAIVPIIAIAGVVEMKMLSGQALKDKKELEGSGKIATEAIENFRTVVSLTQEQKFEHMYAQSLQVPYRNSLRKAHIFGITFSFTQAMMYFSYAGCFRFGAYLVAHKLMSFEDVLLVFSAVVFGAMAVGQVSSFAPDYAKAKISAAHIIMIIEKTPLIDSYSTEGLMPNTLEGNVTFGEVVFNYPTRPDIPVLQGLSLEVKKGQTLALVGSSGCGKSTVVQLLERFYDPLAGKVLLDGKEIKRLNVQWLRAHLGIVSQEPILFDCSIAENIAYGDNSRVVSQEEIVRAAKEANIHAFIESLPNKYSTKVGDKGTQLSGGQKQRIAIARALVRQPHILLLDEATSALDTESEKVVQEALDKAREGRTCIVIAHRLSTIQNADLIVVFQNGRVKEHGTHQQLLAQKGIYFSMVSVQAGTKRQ

SMILES | folds of sensitization of doxorubicin, cells expressing MDR1 (MDR1) [folds] | folds of sensitization of MCF7/VP cells to cisplatin (MCF7/VP cells) [folds] | folds of sensitization of MCF7/VP cells to doxorubicin (MCF7/VP cells) [folds] | folds of sensitization of MCF7/VP cells to etoposide (MCF7/VP cells) [folds] | folds of sensitization of MCF7/VP cells to vincristine (MCF7/VP cells) [folds] | folds of sensitization of doxorubicin, cells expressing MDR3 (MDR3) [folds] | folds of sensitization of doxorubicin, cells expressing MRP1 (MRP1 [1]) [folds] | folds of sensitization of doxorubicin, cells expressing MRP2 (MRP2) [folds] | direct toxicity against NB cells (NB cells) | effect on mouse weight ([2]; 30 days) | in vivo toxicity ([2]; 30 days of observation) | strength as inhibitor of daunorubicin efflux by MRP1 (MRP1 [3]) | concentrations showing drug sensitization effect (MRP1 [4]) | effectiveness compared with BSO (NB) | accumulation of vincristine and etoposide (GL15 and 8 MG cell lines)
CC(Sc1nnc(-c2ccco2)n1-c1ccccc1)C(=O)NC(c1ccccc1)c1ccccc1 (stereo not shown) [Compound 4G05] | 4.6 | 1.1 | 1.6 | 2 | 3 | 2.4 | 1.75 | 1.5 |  |  |  |  |  |  | 
O=C(NCCCN1CCOCC1)c1cnn2c(-c3ccccc3)cc(-c3ccccc3)nc12 [Compound 4H10] | 4.5 | 1.2 | 3.8 | 58 | 14.2 | 0.9 | 4.1 | 3.3 | no direct toxicity | did not adversely affect mouse weight | lack of in vivo toxicity | most potent inhibitor | submicromolar | much more effective than BSO | 
CCN(CC)CCCNC(=O)c1cnn2c(C(F)(F)F)cc(-c3ccc(C)cc3)nc12 [Compound 4E10] | 2.0 | 1.25 | 3.2 | 27 | 12 | 0.6 | 3.7 | 7 |  |  |  |  |  |  | 
CCCN(CCC)S(=O)(=O)c1ccc(C(=O)O)cc1 [probenecid] |  |  |  |  |  |  |  |  |  |  |  |  |  |  | increased the accumulation
COc1ccc2c(c1)c(CC(=O)O)c(C)n2C(=O)c1ccc(Cl)cc1 [Indomethacin] |  |  |  |  |  |  |  |  |  |  |  |  |  |  | increased the accumulation
C=CCSc1nnc2n(-c3ccccc3)c(=O)c3c4c(sc3n12)CCC4 [Compound 9C06] | 3.7 | 1.5 | 3.3 | 12 | 16 | 0.4 | 3.3 | 4.3 |  |  |  |  |  |  | 
O=C(NCCN1CCOCC1)c1cnn2c(-c3ccccc3)cc(-c3ccccc3)nc12 [Compound 4E11] | 4.2 | 1.1 | 2.7 | 34 | 10.5 | 0.7 | 3.9 | 6.5 |  |  |  |  |  |  | 
Cc1nnc(SCC(=O)N/N=C/c2cccc3cccnc23)n1-c1ccccc1 [Compound 17A08] | 2 | 1.1 | 3.6 | 5 | 3 | 1.3 | 1.1 | 1.4 |  |  |  |  |  |  | 
c1ccc(-c2cn3c4ccccc4nc3n2CCN2CCCCC2)cc1 [Compound 14C08] | 3.7 | 1.05 | 4.0 | 18 | 14 | 0.6 | 3.0 | 1.3 |  |  |  |  |  |  | 
